Results as given in ChEMBL document CHEMBL4219030, “Progress in the discovery of small molecule modulators of the Cys-loop superfamily receptors” (Bioorg Med Chem Lett, 2017).

Assays:
[1] = Positive allosteric modulation of wild-type C57BL/6J mouse mitral cell GABAA receptor at 9 to 10 mV holding potential by whole cell patch-clamp method
[2] = target: GABA A receptor alpha-1/beta-1/gamma-2 (Homo sapiens, UniProt P14867+P18505+P18507); assay: Agonist activity at recombinant human GABAA receptor alpha1beta1gamma2L expressed in Xenopus laevis oocytes incubated for 30 secs by electrophysiological method; assay type: cell-based
GABA A receptor alpha-1/beta-1/gamma-2, sequence (P14867 whole entry): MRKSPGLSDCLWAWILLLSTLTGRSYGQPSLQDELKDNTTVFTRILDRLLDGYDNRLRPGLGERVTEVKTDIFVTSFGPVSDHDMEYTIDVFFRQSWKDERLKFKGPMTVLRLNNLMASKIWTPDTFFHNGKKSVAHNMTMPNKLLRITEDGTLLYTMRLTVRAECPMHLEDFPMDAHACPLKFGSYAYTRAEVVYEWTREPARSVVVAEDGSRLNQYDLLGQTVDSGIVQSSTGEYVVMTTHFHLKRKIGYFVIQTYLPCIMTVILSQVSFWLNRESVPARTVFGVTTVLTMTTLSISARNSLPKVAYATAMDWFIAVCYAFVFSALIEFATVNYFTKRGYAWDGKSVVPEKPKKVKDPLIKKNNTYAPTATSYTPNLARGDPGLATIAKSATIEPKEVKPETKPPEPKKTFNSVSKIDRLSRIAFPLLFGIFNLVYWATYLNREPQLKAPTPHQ
GABA A receptor alpha-1/beta-1/gamma-2, sequence (P18507 whole entry): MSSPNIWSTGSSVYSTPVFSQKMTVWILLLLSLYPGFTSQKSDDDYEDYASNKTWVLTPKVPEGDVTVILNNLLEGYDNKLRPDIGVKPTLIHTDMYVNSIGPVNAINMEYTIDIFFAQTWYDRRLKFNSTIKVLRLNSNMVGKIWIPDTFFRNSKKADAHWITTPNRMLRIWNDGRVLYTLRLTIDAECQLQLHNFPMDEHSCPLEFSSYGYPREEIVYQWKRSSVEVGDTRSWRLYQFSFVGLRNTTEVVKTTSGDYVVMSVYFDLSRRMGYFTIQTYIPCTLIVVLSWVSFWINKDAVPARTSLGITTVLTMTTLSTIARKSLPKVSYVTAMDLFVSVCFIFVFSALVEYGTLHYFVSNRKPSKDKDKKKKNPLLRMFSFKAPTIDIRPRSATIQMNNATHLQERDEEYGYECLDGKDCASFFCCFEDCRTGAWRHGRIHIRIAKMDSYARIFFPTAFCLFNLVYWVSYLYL
GABA A receptor alpha-1/beta-1/gamma-2, sequence (P18505 whole entry): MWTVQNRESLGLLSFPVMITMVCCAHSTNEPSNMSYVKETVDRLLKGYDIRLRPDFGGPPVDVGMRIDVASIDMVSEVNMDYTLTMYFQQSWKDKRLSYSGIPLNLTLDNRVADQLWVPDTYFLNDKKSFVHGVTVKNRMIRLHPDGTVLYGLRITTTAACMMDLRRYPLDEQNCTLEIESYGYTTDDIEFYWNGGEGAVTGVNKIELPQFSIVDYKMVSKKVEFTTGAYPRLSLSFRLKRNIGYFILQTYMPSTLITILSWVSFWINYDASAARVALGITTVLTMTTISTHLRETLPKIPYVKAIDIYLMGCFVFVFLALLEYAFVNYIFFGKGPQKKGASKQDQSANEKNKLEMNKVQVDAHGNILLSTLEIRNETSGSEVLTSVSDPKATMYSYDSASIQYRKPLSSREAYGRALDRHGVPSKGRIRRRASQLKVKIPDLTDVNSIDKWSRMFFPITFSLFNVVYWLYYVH

[3] = target: T1, GABA-A receptor; alpha-1/beta-2/gamma-2 (Homo sapiens, UniProt P14867+P18507+P47870); assay: Agonist activity at recombinant human GABAA receptor alpha1beta2gamma2L expressed in Xenopus laevis oocytes incubated for 30 secs by electrophysiological method; assay type: cell-based
T1 sequence (P14867 whole entry): as the sequence (P14867 whole entry) above
T1 sequence (P47870 whole entry): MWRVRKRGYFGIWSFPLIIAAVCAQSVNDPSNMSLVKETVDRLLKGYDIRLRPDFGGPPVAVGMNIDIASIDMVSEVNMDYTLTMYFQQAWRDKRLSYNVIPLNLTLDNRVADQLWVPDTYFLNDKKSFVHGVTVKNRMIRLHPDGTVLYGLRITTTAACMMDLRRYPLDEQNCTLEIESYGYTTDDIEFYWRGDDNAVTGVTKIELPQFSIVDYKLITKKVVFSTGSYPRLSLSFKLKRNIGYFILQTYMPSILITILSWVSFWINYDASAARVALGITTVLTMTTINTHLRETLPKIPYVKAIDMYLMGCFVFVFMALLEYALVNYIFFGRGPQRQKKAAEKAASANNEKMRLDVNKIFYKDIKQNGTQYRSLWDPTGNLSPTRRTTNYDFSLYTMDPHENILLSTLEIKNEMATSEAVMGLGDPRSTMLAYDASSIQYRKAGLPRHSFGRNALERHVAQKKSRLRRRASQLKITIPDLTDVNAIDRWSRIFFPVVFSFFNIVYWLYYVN
T1 sequence (P18507 whole entry): as the sequence (P18507 whole entry) above

[4] = target: T2, GABA A receptor alpha-2/beta-2/gamma-2 (Homo sapiens, UniProt P18507+P47869+P47870); assay: Agonist activity at recombinant human GABAA receptor alpha2beta2gamma2L expressed in Xenopus laevis oocytes incubated for 30 secs by electrophysiological method; assay type: cell-based
T2 sequence (P47870 whole entry): as the sequence (P47870 whole entry) above
T2 sequence (P18507 whole entry): as the sequence (P18507 whole entry) above
T2 sequence (P47869 whole entry): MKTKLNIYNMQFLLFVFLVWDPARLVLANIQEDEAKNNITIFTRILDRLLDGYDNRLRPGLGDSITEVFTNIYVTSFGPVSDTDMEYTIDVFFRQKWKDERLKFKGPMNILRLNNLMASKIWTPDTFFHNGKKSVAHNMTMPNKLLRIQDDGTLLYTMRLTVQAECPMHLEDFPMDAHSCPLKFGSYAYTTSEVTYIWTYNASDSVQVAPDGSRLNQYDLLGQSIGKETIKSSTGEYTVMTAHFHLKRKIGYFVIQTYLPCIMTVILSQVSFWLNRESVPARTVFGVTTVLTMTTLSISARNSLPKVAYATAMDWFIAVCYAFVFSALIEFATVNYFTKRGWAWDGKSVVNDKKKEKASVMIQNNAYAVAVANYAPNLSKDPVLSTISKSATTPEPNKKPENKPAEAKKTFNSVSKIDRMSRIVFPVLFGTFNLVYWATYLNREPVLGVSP

[5] = target: Gamma-aminobutyric acid receptor subunit alpha-1 (Rattus norvegicus, UniProt P62813); assay: Agonist activity at GABAA receptor in Sprague-Dawley rat forebrain membranes assessed as enhancement of [3H]muscimol binding after 2 hrs by radiometric analysis; design: species or system Membrane
[6] = target: Gamma-aminobutyric acid receptor subunit alpha-1 (Rattus norvegicus) (UniProt P62813); assay: Agonist activity at GABAA receptor in Sprague-Dawley rat forebrain membranes assessed as enhancement of [3H]muscimol binding at 1 to 100 uM after 2 hrs by radiometric analysis relative to control; conditions: Membrane
Gamma-aminobutyric acid receptor subunit alpha-1 (Rattus norvegicus), sequence (P62813 whole entry): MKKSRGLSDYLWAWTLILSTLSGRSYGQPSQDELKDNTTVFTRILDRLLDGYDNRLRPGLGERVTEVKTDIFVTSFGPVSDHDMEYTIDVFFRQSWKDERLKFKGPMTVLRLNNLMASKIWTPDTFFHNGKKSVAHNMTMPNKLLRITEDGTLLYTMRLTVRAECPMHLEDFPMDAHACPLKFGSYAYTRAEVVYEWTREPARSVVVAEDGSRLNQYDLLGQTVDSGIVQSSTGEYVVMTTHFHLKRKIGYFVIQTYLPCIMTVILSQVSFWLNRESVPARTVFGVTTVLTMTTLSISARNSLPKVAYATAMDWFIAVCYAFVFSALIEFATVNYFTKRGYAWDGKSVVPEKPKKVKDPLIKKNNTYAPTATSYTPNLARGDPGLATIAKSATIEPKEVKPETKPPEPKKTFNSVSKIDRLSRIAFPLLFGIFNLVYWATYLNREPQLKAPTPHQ

[7] = target: Gamma-aminobutyric acid receptor subunit alpha-1/beta-3/gamma-2 (Rattus norvegicus, UniProt P18508+P62813+P63079); assay: Displacement of [3H]-flunitrazepam from recombinant rat GABAA receptor alpha1beta3gamma2S expressed in HEK293 cell membranes after 90 mins by liquid scintillation counting method
[8] = target: Gamma-aminobutyric acid receptor subunit alpha-2/beta-3/gamma-2 (Rattus norvegicus, UniProt P18508+P23576+P63079); assay: Displacement of [3H]-flunitrazepam from recombinant rat GABAA receptor alpha2beta3gamma2S expressed in HEK293 cell membranes after 90 mins by liquid scintillation counting method
[9] = target: Gamma-aminobutyric acid receptor subunit alpha-3/beta-3/gamma-2 (Rattus norvegicus, UniProt P18508+P20236+P63079); assay: Displacement of [3H]-flunitrazepam from recombinant rat GABAA receptor alpha3beta3gamma2S expressed in HEK293 cell membranes after 90 mins by liquid scintillation counting method
[10] = target: GABA A receptor alpha-5/beta-3/gamma-2 (Rattus norvegicus, UniProt P18508+P19969+P63079); assay: Displacement of [3H]-flunitrazepam from recombinant rat GABAA receptor alpha5beta3gamma2S expressed in HEK293 cell membranes after 90 mins by liquid scintillation counting method
[11] = target: Glycine receptor subunit alpha-3 (Homo sapiens, UniProt O75311); assay: Positive allosteric modulation of recombinant human glycine receptor alpha3 expressed in CHOK1 cells at -60 mV holding potential by whole cell patch-clamp method; assay type: cell-based
[12] = target: Glycine receptor subunit alpha-3 (Homo sapiens) (UniProt O75311); assay: Positive allosteric modulation of recombinant human glycine receptor alpha3 expressed in CHOK1 cells assessed as potentiation of glycine-induced current at 20 uM at -60 mV holding potential by whole cell patch-clamp method relative to glycine; assay type: cell-based
[13] = target: T3, Glycine receptor subunit alpha-1 (Homo sapiens) (UniProt P23415); assay: Positive allosteric modulation of recombinant human glycine receptor alpha1 expressed in CHOK1 cells assessed as potentiation of glycine-induced current at 10 uM at -60 mV holding potential by whole cell patch-clamp method relative to glycine; assay type: cell-based
T3 sequence (whole entry): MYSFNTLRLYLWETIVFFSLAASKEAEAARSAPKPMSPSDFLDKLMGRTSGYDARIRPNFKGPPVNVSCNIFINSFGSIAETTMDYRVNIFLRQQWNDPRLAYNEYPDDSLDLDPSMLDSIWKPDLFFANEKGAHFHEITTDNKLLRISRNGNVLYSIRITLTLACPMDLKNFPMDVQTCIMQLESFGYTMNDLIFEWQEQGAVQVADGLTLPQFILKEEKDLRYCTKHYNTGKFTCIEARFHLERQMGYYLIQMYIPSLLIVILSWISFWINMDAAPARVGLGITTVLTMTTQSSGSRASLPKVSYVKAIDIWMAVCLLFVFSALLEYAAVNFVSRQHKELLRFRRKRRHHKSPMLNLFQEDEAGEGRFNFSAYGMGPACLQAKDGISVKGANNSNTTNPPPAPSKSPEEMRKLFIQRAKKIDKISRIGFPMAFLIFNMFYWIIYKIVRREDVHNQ

[14] = target: T4, GABA-A receptor; alpha-1/beta-3/gamma-2 (Homo sapiens) (UniProt P14867+P18507+P28472); assay: Positive allosteric modulation of recombinant human GABAA receptor alpha1beta3gamma2 expressed in CHOK1 cells assessed as potentiation of GABA-induced current at 10 uM at -60 mV holding potential by whole cell patch-clamp method relative to GABA; assay type: cell-based
[15] = target: T5, GABA-A receptor; alpha-2/beta-3/gamma-2 (Homo sapiens) (UniProt P18507+P28472+P47869); assay: Positive allosteric modulation of recombinant human GABAA receptor alpha2beta3gamma2 expressed in CHOK1 cells assessed as potentiation of GABA-induced current at 10 uM at -60 mV holding potential by whole cell patch-clamp method relative to GABA; assay type: cell-based
[16] = target: T6, Glycine receptor subunit alpha-1 (Homo sapiens, UniProt P23415); assay: Positive allosteric modulation of recombinant human glycine receptor alpha1 expressed in HEK293 cells assessed as increase in glycine-induced current at -60 mV holding potential by whole cell patch-clamp method; assay type: cell-based
T6 sequence (P23415 whole entry): T3 sequence (whole entry)

[17] = target: T3, Glycine receptor subunit alpha-1 (Homo sapiens); assay: Positive allosteric modulation of recombinant human glycine receptor alpha1 expressed in HEK293 cells assessed as potentiation of glycine-induced current at -60 mV holding potential by whole cell patch-clamp method relative to 10 uM glycine; assay type: cell-based
[18] = target: Glycine receptor (alpha-1/beta) (Homo sapiens, UniProt P23415+P48167); assay: Inhibition of recombinant human glycine receptor alpha1beta expressed in HEK293 cells; assay type: cell-based
[19] = target: Glycine receptor subunit alpha-2/beta (Homo sapiens, UniProt P23416+P48167); assay: Inhibition of recombinant human glycine receptor alpha2beta expressed in HEK293 cells; assay type: cell-based
[20] = target: Glycine receptor alpha-3/beta (Homo sapiens, UniProt O75311+P48167); assay: Inhibition of recombinant human glycine receptor alpha3beta expressed in HEK293 cells; assay type: cell-based
[21] = target: T4, GABA-A receptor; alpha-1/beta-3/gamma-2 (Homo sapiens); assay: Positive allosteric modulation of recombinant human GABAA receptor alpha1beta3gamma2 expressed in Xenopus oocytes assessed as potentiation of GABA induced chloride current response relative to GABA; assay type: cell-based
[22] = target: GABA-A receptor; alpha-2/beta-3/gamma-2 (Homo sapiens, UniProt P18507+P28472+P47869); assay: Displacement of [3H]Ro15-1788 from human GABAA receptor alpha2beta3gamma2 expressed in LTK cells […]; assay type: cell-based
[23] = target: T7, GABA A receptor alpha-4/beta-3/gamma-2 (Homo sapiens, UniProt P18507+P28472+P48169); assay: Displacement of [3H][…] from human GABAA receptor alpha4beta3gamma2 expressed in LTK cells […]; assay type: cell-based
[24] = target: GABA-A receptor; alpha-5/beta-3/gamma-2 (Homo sapiens, UniProt P18507+P28472+P31644); assay: Displacement of [3H]Ro15-1788 from human GABAA receptor alpha5beta3gamma2 expressed in LTK cells […]; assay type: cell-based
[25] = target: T5, GABA-A receptor; alpha-2/beta-3/gamma-2 (Homo sapiens); assay: Positive allosteric modulation of recombinant human GABAA receptor alpha2beta3gamma2 expressed in Xenopus oocytes assessed as potentiation of GABA induced chloride currents relative to GABA; assay type: cell-based
[26] = target: GABA-A receptor; alpha-3/beta-3/gamma-2 (Homo sapiens) (UniProt P18507+P28472+P34903); assay: Positive allosteric modulation of recombinant human GABAA receptor alpha3beta3gamma2 expressed in Xenopus laevis oocytes assessed as potentiation of GABA induced chloride currents relative to GABA; assay type: cell-based
[27] = target: T7, GABA A receptor alpha-4/beta-3/gamma-2; assay: Positive allosteric modulation of recombinant human GABAA receptor alpha4beta3gamma2 expressed in Xenopus laevis oocytes assessed as potentiation of GABA induced chloride currents relative to GABA; assay type: cell-based
[28] = target: GABA-A receptor; alpha-5/beta-3/gamma-2 (Homo sapiens) (UniProt P18507+P28472+P31644); assay: Positive allosteric modulation of recombinant human GABAA receptor alpha5beta3gamma2 expressed in Xenopus laevis oocytes assessed as potentiation of GABA induced chloride currents relative to GABA; assay type: cell-based
[29] = target: GABA-A receptor; alpha-6/beta-3/gamma-2 (Homo sapiens) (UniProt P18507+P28472+Q16445); assay: Positive allosteric modulation of recombinant human GABAA receptor alpha6beta3gamma2 expressed in Xenopus oocytes assessed as potentiation of GABA induced chloride currents relative to GABA; assay type: cell-based
[30] = target: GABA A receptor alpha-3/beta-2/gamma-2 (Homo sapiens, UniProt P18507+P34903+P47870); assay: Positive allosteric modulation of recombinant wild type GABAA receptor alpha3beta2gamma2S (unknown origin) expressed in HEK293 cells assessed as potentiation of GABA induced chloride current response treated every 30 secs measured for 2 to 3 secs by patch clamp method; assay type: cell-based
[31] = target: GABA A receptor alpha-3/beta-2/gamma-2 (Homo sapiens) (UniProt P47870+P18507+P34903); assay: Positive allosteric modulation of recombinant wild type GABAA receptor alpha3beta2gamma2S (unknown origin) expressed in HEK293 cells assessed as potentiation of GABA induced chloride current response relative to 30 uM GABA; assay type: cell-based
[32] = target: T2, GABA A receptor alpha-2/beta-2/gamma-2; assay: Positive allosteric modulation of recombinant wild type GABAA receptor alpha2beta2gamma2S (unknown origin) expressed in HEK293 cells assessed as potentiation of GABA induced chloride current response treated every 30 secs measured for 2 to 3 secs by patch clamp method; assay type: cell-based
[33] = target: GABA A receptor alpha-2/beta-2/gamma-2 (Homo sapiens) (UniProt P47870+P18507+P47869); assay: Positive allosteric modulation of recombinant wild type GABAA receptor alpha2beta2gamma2S (unknown origin) expressed in HEK293 cells assessed as potentiation of GABA induced chloride current response relative to GABA; assay type: cell-based
[34] = Positive allosteric modulation of recombinant wild type GABAA receptor alpha4beta2gamma2S (unknown origin) expressed in HEK293 cells assessed as potentiation of GABA induced chloride current response treated every 30 secs measured for 2 to 3 secs by patch clamp method; assay type: cell-based; conditions: Homo sapiens
HEK293 = assay: Positive allosteric modulation of recombinant wild type GABAA receptor alpha4beta2gamma2S (unknown origin) expressed in HEK293 cells assessed as potentiation of GABA induced chloride current response relative to GABA; assay type: cell-based; conditions: Homo sapiens
[35] = target: Gamma-aminobutyric acid receptor subunit alpha-4/beta-2/delta (Homo sapiens, UniProt O14764+P47870+P48169); assay: Positive allosteric modulation of GABAA receptor alpha4beta2delta (unknown origin); assay type: protein-complex assay
[36] = target: T1, GABA-A receptor; alpha-1/beta-2/gamma-2; assay: Positive allosteric modulation of GABAA receptor alpha1beta2gamma2 (unknown origin); assay type: protein-complex assay

CC1CC(=O)C=C(Nc2ccc(OC(F)(F)F)cc2)C1 (configuration not stated)
EC50 [1]: 24.5 µM

Oc1c(Br)cc(Br)cc1-c1cc(Br)cc(Br)c1O [BROMOPHENE]
EC50 [2]: 0.32 µM
EC50 [3]: 0.72 µM
EC50 [4]: 1.08 µM

CCCCNC(=O)c1cc(-c2ccc(F)cc2F)ccc1O
EC50 [5]: 15 µM
Emax [6]: 56%

C#Cc1ccc2c(c1)C(c1ccccc1F)=N[C@H](C)c1c(C(=O)NC)ncn1-2
Ki [7]: 0.85 µM
Ki [8]: 0.36 µM
Ki [9]: 0.66 µM
Ki [10]: 0.055 µM

O=S(=O)(NCCOc1cccc2cccnc12)c1ccc(F)cc1
EC50 [11]: 3.9 µM
fold change (FC) [12]: 28
fold change (FC) [13]: 39.7
fold change (FC) [14]: 0
fold change (FC) [15]: 0

C=C[C@]12CN(C)[C@@H]3[C@H]4CO[C@H](C[C@H]41)[C@]1(C(=O)Nc4ccccc41)[C@@H]32 [GELSEMINE]
EC50 [16]: 0.59 µM
fold change (FC) [17]: 0.55
IC50 [18]: 30 to 50 µM
IC50 [19]: 30 to 50 µM
IC50 [20]: 30 to 50 µM

COc1ccc(-n2nc3c4cc(Cl)ccc4[nH]cc-3c2=O)cc1
fold change (FC) [21]: 10
Ki [22]: > 10 µM
Ki [23]: > 10 µM
Ki [24]: 0.0003 µM
fold change (FC) [25]: 8
fold change (FC) [26]: 5
fold change (FC) [27]: 2
fold change (FC) [28]: 2
fold change (FC) [29]: 20

COc1ccc(C(=O)/C=C/c2cc(OC)ccc2O)cc1
EC50 [30]: 17.7 µM
fold change (FC) [31]: 19.6
EC50 [32]: 7.6 µM
fold change (FC) [33]: 13.6
EC50 [34]: 8.1 µM
fold change (FC) (HEK293): 6.2

C[C@@]1(O)CC[C@H]2[C@H](CC[C@@H]3[C@@H]2CC[C@]2(C)[C@@H](C(=O)Cn4cc(C#N)cn4)CC[C@@H]32)C1 [ZURANOLONE]
EC50 [35]: 0.163 µM
EC50 [36]: 0.374 µM
